Measured values taken from patent publication US20240398801A1, “TREATMENT OF LEUKEMIA BASED ON LEUKEMIA HIERARCHY IN A PATIENT” (UNIVERSITY HEALTH NETWORK, priority 2021, published 2024).

What was measured:
human AML cells = test: Changes in cell type composition after drug treatment (deconvolution of RNA-seq from preclinical studies); assay type: cell-based
Excerpt: To identify RNA-seq datasets collected from AML samples before and after drug treatment, Applying the search terms “Acute Myeloid Leukemia” and “AML” with the “Homo sapien” and “RNA-sequencing” flags on Gene Expression Omnibus (GEO) and ArrayExpress, we identified 95 datasets posted before Jun. 17, 2021. From these, 53 were inhibitors that met the inclusion criteria of human AML samples with available RNA-sequencing data collected before and after drug treatment. Datasets with only differential expression results or Bigwig files were excluded. Datasets with less than three samples in each treatment group were also excluded, resulting in a total of 47 datasets included in the final analysis. Each dataset was processed and underwent TPM normalization and deconvolution with CIBERSORTx using a signature matrix of seven malignant cell types (LSPC-Quiescent, LSPC-Primed, LSPC-Cycle, GMP-like, ProMono-like, Mono-like, cDC-like). For quality control among cell line samples, the deconvolution correlation values from each sample across every dataset were compared and the jenks natural breaks algorithm was employed to identify cutoffs demarcating low, medium, and high correlation bins. Cell line samples classified as “low-correlation” with a correlation value below 0.437 were excluded from further analysis, leaving 42 datasets spanning 153 treatment conditions.
Relative changes in cell type abundance in each treatment condition were evaluated using Wilcoxon rank-sum tests for technical replicates or Wilcoxon signed-rank tests for biological replicates with paired treatment conditions. For dimensionality reduction with UMAP, we focused exclusively on changes in cell type abundance where the p-value was <0.05 to emphasize the key changes in cell type composition induced by each drug, resulting in 125 treatment conditions spanning 38 studies. Absolute log p-values were used to represent the magnitude of shift in cell type abundance, and cell type changes where p>0.05 were assigned a magnitude of zero. […]

AML engraftment = test: Patient-derived xenograft (PDX) response of AML patient samples to fedratinib, CC-90009 or their combination; assay type: in vivo, NOD.SCID mice; details: for response rate: PDX
Method: Using normalized malignant cell type composition data for 46 patient samples used for in vivo fedratinib or CC-90009 treatment, dimensionality reduction was performed and clustering was assigned using the leiden algorithm with a resolution of 0.7, yielding three clusters: Primitive, Mature, Intermediate/GMP. […] Samples were subsequently projected on the reference map for visualization and confirmation of cluster assignments.
Patient samples were classified into response categories by comparing the relative reduction (RR) of AML engraftment in drug-treated mice versus vehicle-treated mice, as per Galkin et al 98. RR was calculated as: ((mean % engraftment in control mice)−(mean % engraftment in drug treated mice))/(mean % engraftment in control mice). Patient samples were classified as Responders if RR in the injected femur (Right Femur, RF) was >50%, classified as Partial Responders if we observed 20 to 50% RR in the RF or >20% in the non-injected femur (Bone Marrow, BM) only, and classified as Non-Responders if there was no statistically significant difference in engraftment levels between control- and drug-treated mice, or if RR was <20% in both RF and BM.
Samples with unknown NPM1 mutation status were subsequently assigned as NPM1 mutant or NPM1 wild-type according to their cluster membership.
NOD.SCID mice were bred and housed in the University Health Network (UHN) animal care facility and all animal experiments were performed in accordance with guidelines approved by the UHN animal care committee. Ten-week-old NOD.SCID mice were irradiated (225 cGy) and pretreated with anti-CD122 antibody (200 μg per mouse), 24 hours prior to transplantation. Viably frozen mononucleated cells from AML patients were thawed, counted, and intrafemorally injected at the dose of 5 million cells per mouse. At day 21 post transplantation, treatment of either CC-90009 or Fedratinib alone with vehicle, or in combination, was initiated twice a day for 2 weeks. CC-90009 was given by intraperitoneal (IP) injections at the dose of 2.5 mg/kg and Fedratinib was dissolved in 0.5% methylcellulose and orally gavaged at 60 mg/kg. Following treatment, levels of AML engraftment were assessed to determine the efficacy of drug treatment against the disease in the mice. Cells collected from the injected right femur, non-injected bone marrow of each individual mouse were stained with human specific antibodies and evaluated by flow cytometry. Antibodies used for assessment of human AML engraftment include: CD45-APC, CD33-PE-Cy5, CD19-V450, CD34-APC-Cy7, CD15-FITC (BD), CD33-PE-Cy5, and CD14-PE (Beckman Coulter).

primary AML samples [1] = test: Association of LinClass-7 / LSC17 score with ex vivo drug sensitivity in primary AML drug screens; assay type: cell-based, human
Method: Ex vivo drug response in BEAT-AML samples was measured through the Area Under the dose-response Curve (AUC) metric, wherein a low AUC corresponds to sensitivity while a high AUC corresponds to resistance. AUC values were scaled and multiplied by −1 to represent sensitivity in each treatment condition. Pearson correlation was used to measure association between cell type abundance and drug sensitivities, following recommendations from a benchmarking study by Smirnov et al^97. Associations were depicted using the R package “corrplot”, and drug sensitivity volcano plots were generated using the R package “EnhancedVolcano”. For associations of cell type abundance with clinical and biological features, absolute cell type abundance was always used and pearson correlations were calculated unless otherwise specified.
To derive the LinClass-7 score, logCPM-normalized expression of 16 genes from the LSC17 assay were used as input features for LASSO regression: DNMT3B, GPR56, NGFRAP1, CD34, DPYSL3, SOCS2, MMRN1, KIAA0125, EMP1, NYNRIN, LAPTM4B, CDK6, AKR1C3, ZBTB46, CPXM1, ARHGAP22. The 17th gene, C19orf77, was excluded due to lack of expression data in the Leucegene cohort. LASSO regression was performed on negative PC2 (high in Primitive and low in Mature) with leave-one-out cross validation using the LassoCV function from scikit-learn with a path length of 0.1. Patients from TCGA and Leucegene were combined into a training set, and patients from BEAT-AML were used as a validation set to evaluate the strength of the association between LinClass-7 and PC2.

primary AML samples [2] = test: Selinexor in vivo treatment of primary AML samples, cell type abundance by RNA-seq deconvolution; parameters: species or system NSG mice; details: primary AML samples treated in vivo
Method: RNA was extracted from bulk peripheral blood mononuclear cells using an RNeasy Micro Kit (Qiagen). Libraries were constructed using SMART-Seq (Clonetec). A paired-end 50-base-pair flow-cell lane Illumina HiSeq 2000 yielded an average of 240 million aligned reads per sample. To align RNA-seq reads from samples used in selinexor and fedratinib treatments, Illumina paired-end sequence data were analyzed with BWA/v0.6 alignment software with option (-s) to disable Smith-Waterman alignment. Reads were mapped onto GRCh37-lite reference genome and exon-exon junction reference whose coordinates were defined based on transcript annotations in Ensembl/v59. Reads with mapping quality <10 were discarded and duplicate reads were tagged using the Picard's MarkDuplicates program. JAGuaR 2.1 was used to incorporate reads spanning multiple exons into the alignment by introducing large alignment gaps. All transcripts of a given gene were collapsed into a single gene model such that exonic bases were the union of exonic bases that belonged to all known transcripts of the gene. Read counts and subsequently RPKM counts were obtained by counting the fraction of each read that overlapped with an exonic region for that gene. To align RNA-seq reads from functionally annotated LSC fractions, sequence data was aligned against GRCh38 and transcript sequences downloaded from Ensembl build 90 using STAR 2.5.2a. […]

AML = test: Subgroup analysis of the ALFA-0701 trial by LinClass-7 score; assay type: in vivo, human
[3] = AMLs with Intermediate/GMP hierarchies
[4] = AMLs with Primitive hierarchies
[5] = added to standard chemotherapy vs chemotherapy alone, LinClass-7 low (mature) AML

For `CC1=C(/C=C/C(C)=C/C=C/C(C)=C/C(=O)O)C(C)(C)CCC1` [ATRA], the “blast population from which differentiation is induced” value (human AML cells) was “predominantly from GMP-like blasts”.

For `Cc1c(-c2ccc(-c3ccccc3F)cc2)nc2ccc(F)cc2c1C(=O)O` [Brequinar], the “Quiescent LSPC abundance after treatment” value (human AML cells; accompanying induced differentiation) was “reduction”.

`O=C1CCC(N2Cc3cc(CNC(=O)C(F)(F)c4ccc(Cl)cc4)ccc3C2=O)C(=O)N1` (stereo not drawn) [CC-90009] gave a response rate (AML engraftment; [3]) of 83%, a response rate (AML engraftment; AMLs with Mature hierarchies) of 88% and a response rate (AML engraftment; [4]) of 40%. For the same molecule, the “response among Primitive AMLs” value (AML engraftment; Primitive AMLs lacking NPM1c mutation and ETC signatures) was “favorable response” and the “response among Primitive AMLs” value (AML engraftment; Primitive AMLs with NPM1c mutations and electron transport chain signatures) was “poor response”.

In the case of `FC(F)(F)c1ccc(/C=C/c2nc(COc3ccc(CCCCn4ccnn4)cc3)co2)cc1` [Mubritinib], the “blasts targeted, from correlation of LinClass-7 score with drug sensitivity” value (primary AML samples [1]; drug screens of Tyner et al and Lee et al) is reported as “primitive blasts”, the “difference in ex vivo sensitivity between patient samples with high and low score” value (“difference” below) (primary AML samples [1]; split by LSC17) is reported as “no significant difference” and the “difference” value (primary AML samples [1]; split by LinClass-7) is reported as “stark differences”.

With `CC1(C)CCC(c2ccc(Cl)cc2)=C(CN2CCN(c3ccc(C(=O)NS(=O)(=O)c4ccc(N[C@H](CCN5CCOCC5)CSc5ccccc5)c(S(=O)(=O)C(F)(F)F)c4)cc3)CC2)C1` [Navitoclax] the “difference” value (primary AML samples [1]; split by LSC17) was “no significant difference” and the “difference” value (primary AML samples [1]; split by LinClass-7) was “stark differences”.

`O=C(/C=C\n1cnc(-c2cc(C(F)(F)F)cc(C(F)(F)F)c2)n1)NNc1cnccn1` [Selinexor] was tested, and the “Cycling LSPC population after treatment” value (human AML cells; primary AML samples treated in vitro) was “depletion” and the “Cycling LSPC population after treatment” value (primary AML samples [2]) was “depletion”.

With `Cc1cnc(Nc2ccc(OCCN3CCCC3)cc2)nc1Nc1cccc(S(=O)(=O)NC(C)(C)C)c1` [fedratinib] the response rate (AML engraftment; [3]) was 20%, the response rate (AML engraftment; AMLs with Mature hierarchies) was 88% and the response rate (AML engraftment; [4]) was 46%.

For Gemtuzumab Ozogamicin [GO], the event-free survival (AML; [5]) was “significantly longer”, the relapse-free survival (AML; [5]) was “significantly longer” and the survival benefit (AML; added to standard chemotherapy, LinClass-7 high primitive AML) was “no significant survival benefit”. The overall survival (AML; added to standard chemotherapy, LinClass-7 low (mature) AML) was “did not extend”.
